From patent US20230106592A1, “METHOD FOR TREATING CANCER USING A COMBINATION OF DNA DAMAGING AGENTS AND ATR INHIBITORS” (Vertex Pharmaceuticals Incorporated, priority 2015, published 2023)

Experiments:
Type in all cases: in vivo, human
[1] = Phase I trial, combination with gemcitabine: pharmacokinetics; settings: combination with gem
From the text: Grade 3/4 treatment-related adverse events (AEs) occurred in 25 pts. DLTs occurred in 4 pts: 2 pts in DL4 (grade 3 thrombocytopenia; grade 3 elevated ALT and fatigue); 1 pt in DL5 (grade 3 elevated AST); 1 pt in DL6, (grade 3 elevated AST, ALT and grade 2 elevated ALP). The maximum tolerated dose was not reached but dose escalation was stopped at DL10 per investigator recommendation. […] The primary tumors in these four patients were breast cancer, head and neck cancer, NSCLC, and carcinoma of unknown primary origin. A pt with breast cancer in DL8 achieved PR at the 1st assessment and the pt remains on trial >133 days. Two (2) pts had prolonged stable disease (SD) responses. The tumor response and duration of progression free survival (PFS) are shown in FIGS. 16 and 17, respectively. For many patients, the duration of PFS extended beyond the 12-week primary endpoint. […] Progression-free survival (PFS) of 415 days in 1 patient with renal cancer(papillary carcinoma) and >191 days (pt with GIST) were observed.

[2] = test system: advanced solid tumors; test: Phase I trial, combination with gemcitabine: response and PFS
[3] = Phase I trial, combination with gemcitabine and cisplatin: DLTs

CNCc1ccc(-c2cc(-c3nc(-c4ccc(S(=O)(=O)C(C)C)cc4)cnc3N)on2)cc1 [Compound A-2]
half-life ([1]; both sexes, human, in vivo, intravenous, across DLs, read-out: Terminal elimination half-life (converted)): ~16 h | Exposure based on Cmax and AUC0-∞ [1]: relatively linear | Progression-free survival (PFS) ([2]; 1 patient with renal cancer (papillary carcinoma), combination with gem): 415 days | Median PFS ([2]; Compound A-2 <90 mg/m^2 + gemcitabine 875 mg/m^2): 8.3 weeks | Median PFS ([2]; Compound A-2 ≥90 mg/m^2 + gemcitabine 500 mg/m^2): 29.3 weeks | Prolonged stable disease (SD) responses ([2]; combination with gem): 2 pts | Best overall response partial response (PR) ([2]; combination with gem, 50 pts): 4 pts | Progression-free survival (PFS) ([2]; pt with GIST, combination with gem): > 191 days | Time on trial ([2]; pt with breast cancer in DL8): > 133 days | No. of Patients with DLTs ([3]; Cohort 11: Compound A-2 90 + Gemcitabine 875 + Cisplatin 60 mg/m^2, 6/6, thrombocytopenia/neutropenia): 1 (thrombocytopenia/ | No. of Patients with DLTs ([3]; Cohort 12: Compound A-2 120 + Gemcitabine 875 + Cisplatin 60 mg/m^2, 2/2, febrile neutropenia/thrombocytopenia, hypoxia/neutropenia): 2 (febrile neutropenia/
